Laboratory results: US8278464B2, “Insecticides” (Syngenta Crop Protection LLC, priority 2006, dated 2012)

Experiments:
Format in all cases: in vivo
[1] = tested on: Myzus persicae (Green Peach Aphid); assay: Activity against Myzus persicae, contact, sunflower leaf discs (Example B5); conditions: foliar, 144 h, 6 DAT
Experimental: Sunflower leaf discs are placed on agar in a 24-well microtiter plate and sprayed with test solutions. After drying, the leaf discs are infested with an aphid population of mixed ages. After an incubation period of 6 DAT, samples are checked for mortality and special effects (e.g. phytotoxicity).

[2] = tested on: Spodoptera littoralis (Cotton Leafworm); assay: Systemic insecticide test for Spodoptera littoralis, maize seedlings, 12.5 ppm (Example B9); conditions: 96 h, 12.5 ppm in water, systemic via maize seedlings, larvae incubated four days
Experimental: (§1) Four day old maize seedlings (Zea mais, variety Stoneville) are placed individual in vials containing 24 ml water into which the chemical is diluted at 12.5 ppm. Seedlings are allowed to grow for six days. Subsequently leaves are cut and placed in a Petri dish (5 cm diameter), inoculated with twelve to fifteen 1st instar S. littoralis larvae and incubated for four days in a growth chamber (25° C., 50% r.h., 18:6 L:D photo period). Number of alive insects are counted and percentage of dead calculated. Tests were conducted with one replicate.

[3] = tested on: Plutella xylostella (Diamond Back Moth); assay: Activity against Plutella xylostella, artificial diet MTP (Example B3); conditions: 120 h, L2 larvae, incubation 5 days
Experimental: (§2) 24-well microtiter plate (MTP) with artificial diet is treated with test solutions by pipetting. After drying, the MTP's are infested with larvae (L2) (10-15 per well). After an incubation period of 5 days, samples are checked for larval mortality, antifeedant and growth regulation. In this test, compounds listed in the Tables above show good activity. In particular compounds T13.1.2, T15.1.1, T15.1.91, T13.1.1, T9.1.2 (diastereomer A), T9.1.2 (diastereomer B), T16.1.1, T17.1.2 (diastereomer A), T17.1.2 (diastereomer B), T16.1.91, T13.1.92, T13.1.361, T13.1.391, T13.1.91, T13.1.6, T13.1.96, T44.1.2, T13.1.8, T13.1.23, T13.1.93, T13.1.113, T13.1.21, T13.1.111 have an activity of over 80% at 400 ppm.

[4] = tested on: Myzus persicae (Green Peach Aphid); assay: Activity against Myzus persicae, systemic, pea seedlings (Example B6); conditions: 144 h, 6 days after introduction
Excerpt: Roots of pea seedlings, infested with an aphid population of mixed ages, are placed directly in the test solutions. 6 days after introduction, samples are checked for mortality and special effects on the plant.

[5] = tested on: Thrips tabaci (Onion Thrips); assay: Activity against Thrips tabaci, sunflower leaf discs (Example B7); conditions: foliar, 144 h, incubation 6 days
Experimental: Sunflower leaf discs are placed on agar in a 24-well microtiter plate and sprayed with test solutions. After drying, the leaf discs are infested with a thrips population of mixed ages. After an incubation period of 6 days, samples are checked for mortality and special effects (e.g. phytotoxicity).

[6] = tested on: Spodoptera littoralis (Egyptian Cotton Leafworm); assay: Activity against Spodoptera littoralis, cotton leaf discs sprayed (Example B1); conditions: foliar, 72 h, L1 larvae, checked 3 days after treatment
Excerpt: Cotton leaf discs are placed on agar in a 24-well microtiter plate and sprayed with test solutions. After drying, the leaf discs are infested with 5 L1 larvae. The samples are checked for mortality, repellent effect, feeding behaviour, and growth regulation 3 days after treatment (DAT).

[7] = tested on: Diabrotica balteata (Corn Root Worm); assay: Activity against Diabrotica balteata, artificial diet MTP (Example B4); conditions: 120 h, L2 larvae, incubation 5 days
Experimental: as §2, with “(6-10” for “(10-15”, “B),” for “B), T16.1.1,”, “T13.1.92,” for “T13.1.92, T13.1.361, T13.1.391,”, “T13.1.23,” for “T13.1.23, T13.1.93,”

[8] = tested on: Heliothis virescens (Tobacco Budworm); assay: Activity against Heliothis virescens, eggs on artificial diet (Example B2); conditions: 96 h, eggs 0-24 h old, incubation 4 days
Experimental: Eggs (0-24 h old) are placed in 24-well microtiter plate on artificial diet and treated with test solutions by pipetting. After an incubation period of 4 days, samples are checked for egg mortality, larval mortality, and growth regulation.

[9] = tested on: Spodoptera littoralis (Lepidoptera:Noctuidae); assay: Systemic insecticide test for Spodoptera littoralis, comparison with state of the art (Example B11)
Experimental: as §1, with “the prescribed concentrations (3 and 0.8 ppm).” for “12.5 ppm.”, “(3.5” for “(5”, “calculated. Effects on larvae growth were compared to the control and percentage of larvae growth reduction calculated.” for “calculated.”

Row | Compound | pest or weed control at 400 ppm [1] [%] | pest or weed control at 12.5 ppm [2] [%] | pest or weed control at 400 ppm [3] [%] | pest or weed control at 400 ppm [4] [%] | pest or weed control at 400 ppm [5] [%] | pest or weed control at 400 ppm [6] [%] | pest or weed control at 400 ppm [7] [%] | pest or weed control at 400 ppm [8] [%] | Death rate (%) after 4 days ([9]; concentration 0.8 ppm) [%] | Larvae growth reduction (% compared to control) ([9]; concentration 0.8 ppm) [%] | Death rate (%) after 4 days ([9]; concentration 3 ppm) [%] | Larvae growth reduction (% compared to control) ([9]; concentration 3 ppm) [%]
1 | Cc1cc(Cl)cc(C(=O)NC2(C)C[S+]([O-])C2)c1NC(=O)c1cc(C(F)(F)F)nn1-c1ncccc1Cl (single isomer, unassigned) [T9.1.2 (diastereomer A)] | > 80 | > 80 | > 80 | > 80 | > 80 | > 80 | > 80 | > 80 | – | – | – | –
2 | O=C(NC1CS(=O)(=O)C1)c1cccc(Cl)c1NC(=O)c1cc(C(F)(F)F)nn1-c1ncccc1Cl [T13.1.391] | – | > 80 | > 80 | – | – | > 80 | – | > 80 | 10 | 0 | 55 | 100
3 | O=C(NC1CCC1)c1cccc(Cl)c1NC(=O)c1cc(C(F)(F)F)nn1-c1ncccc1Cl [Comp. 296, reference compound] | – | – | – | – | – | – | – | – | 0 | 0 | 0 | 0
4 | Cc1cc(Cl)cc(C(=O)NC2(C)CS(=O)(=O)C2)c1NC(=O)c1cc(C(F)(F)F)nn1-c1ncccc1Cl [T13.1.2, 2-(3-Chloro-pyridin-2-yl)-5-trifluoromethyl-2H-pyrazole-3-carboxylic acid [4-chloro-2-methyl-6-(3-methyl-1,1-dioxo-1λ^6-thietan-3-ylcarbamoyl)-phenyl]-amide] | > 80 | > 80 | > 80 | > 80 | > 80 | > 80 | > 80 | > 80 | – | – | – | –
5 | Cc1cc(Cl)cc(C(=O)NC2CS(=O)(=O)C2)c1NC(=O)c1cc(OCC(F)(F)F)nn1-c1ncccc1Cl [T13.1.21] | > 80 | – | > 80 | > 80 | > 80 | > 80 | > 80 | > 80 | – | – | – | –
6 | Cc1cc(C#N)cc(C(=O)NC2(C)CS(=O)(=O)C2)c1NC(=O)c1cc(C(F)(F)F)nn1-c1ncccc1Cl [T13.1.92] | > 80 | > 80 | > 80 | > 80 | > 80 | > 80 | > 80 | > 80 | – | – | – | –
7 | Cc1cc(C#N)cc(C(=O)NC2CS(=O)(=O)C2)c1NC(=O)c1cc(Br)nn1-c1ncccc1Cl [T13.1.96] | > 80 | > 80 | > 80 | > 80 | > 80 | > 80 | > 80 | > 80 | – | – | – | –
8 | Cc1cc(Cl)cc(C(=O)NC2(C)CS(=N)(=O)C2)c1NC(=O)c1cc(C(F)(F)F)nn1-c1ncccc1Cl (single isomer, unassigned) [T17.1.2 (diastereomer A)] | > 80 | > 80 | > 80 | > 80 | > 80 | > 80 | > 80 | > 80 | – | – | – | –
